The record followed here is patent US20110269626A1, “HERBICIDAL COMPOSITIONS COMPRISING HPPD-INHIBITORS AND METHODS OF CONTROLLING WEEDS IN TURFGRASSES” (priority 2008, published 2011).

What all share (assay type): in vivo
One data set has as its system warm season turfgrasses. The data set is described as follows: Safening of liquid mesotrione formulation on warm season turfgrasses (conclusion from Tables 1 and 2). Particulars: safener applied in combination with a liquid formulation of mesotrione to warm season turfgrasses. An excerpt: (§1) A liquid formulation of mesotrione (Callisto®) was applied to bermudagrass (Cynodon dactylon×C. dactylon) and zoysia grass (Zoysia matrella) by spray application, with and without safeners, at various rates as show in the table below. Assessments were made at 7, 14 and 21 days after application, to determine percentage growth inhibition, an percentage toxicity (chlorosis and/or burning).

For data set [1], the system named is bermudagrass (Cynodon dactylon×C. dactylon). Kind of data set: Spray application of liquid mesotrione formulation (Callisto) with and without safeners to bermudagrass; percentage toxicity (chlorosis and/or burning).
From the text: as §1

The subject of data set [2] is zoysia grass (Zoysia matrella). Kind of data set: Spray application of liquid mesotrione formulation (Callisto) with and without safeners to zoysia grass; percentage toxicity (chlorosis and/or burning).
From the text: as §1

The mark [3] stands for this setting: herbicide 140 g ai/ha, safener 70 g ai/ha or none, 7 DAA.
[4] abbreviates: herbicide 140 g ai/ha, safener 70 g ai/ha or none, 14 DAA.
Setting [5] is: herbicide 140 g ai/ha, safener 70 g ai/ha or none, 21 DAA.
The mark [6] stands for this setting: herbicide 280 g ai/ha, safener 140 g ai/ha or none, 7 DAA.
The mark [7] stands for this setting: herbicide 280 g ai/ha, safener 140 g ai/ha or none, 14 DAA.
[8] abbreviates: herbicide 280 g ai/ha, safener 140 g ai/ha or none, 21 DAA.

On to `CNC(=O)Nc1ccc(S(=O)(=O)NC(=O)c2ccccc2OC)cc1` [Formula IV], for which the safening entry with warm season turfgrasses was “Particularly good safening”.
In the case of `CS(=O)(=O)c1ccc(C(=O)C2C(=O)CCCC2=O)c([N+](=O)[O-])c1` [Mesotrione, 2-(2′-nitro-4′-methylsulphonylbenzoyl)-1,3-cyclohexanedione], the Percentage toxicity in data set [1] (setting [3]) is given as 30%; in data set [1] (setting [4]) it was 10%; in data set [1] (setting [5]), 20%; in data set [1] (setting [6]), 60%; in data set [1] (setting [7]), 50%; in data set [1] (setting [8]) it was 50%. The Percentage toxicity in data set [2] (setting [3]) turned out to be 10%; in data set [2] (setting [4]), 40%; in data set [2] (setting [5]) it was 50%; in data set [2] (setting [6]), 15%; in data set [2] (setting [7]), 50%; in data set [2] (setting [8]) it was 70%.
